Measured values from patent US20040013649A1, “Cancer vaccines and methods of using the same” (Inex Pharmaceuticals Corporation, priority 2002, published 2004).
Entries after “also recorded” stand apart in the source; their conditions may differ.

Columns and labels:
[1] = tested on: IL-12, IL-6, IFN-γ and MCP-1; test: plasma cytokine levels after i.v. injection; format: in vivo, ICR mice; details: for stimulation of plasma IL-6, IL-12, IFN-γ and MCP-1: encapsulated in DSPC:Chol:DODAP:PEG-CER14 20:45:25:10, i.v.
Method: As noted above, with non-lipid encapsulated oligonucleotides the backbone is traditionally modified so as to reduce molecular degradation by nucleases. However, on encapsulation, such a modification is no longer required to prevent degradation. To establish the effect of a different phosphate backbone on cytokine stimulation induced by lipid encapsulation, mice were injected with oligonucleotides having both PO and PS backbones, and cytokine stimulation was measured over a series of points in time (as shown in FIG. 6 and 7B) and over a sliding dosage scale as shown in FIG. 7A. In this experiment ICR mice were injected i.v. with a 20 mg ODN/kg dose of free PO ODN1, encapsulated PO-ODN1 and encapsulated PS-ODN1. […] Cytokine stimulation is generally indicative of a cellular immune response as is a chemokine response in MCP-1. Oligonucleotides were encapsulated in a lipid particle composed of DSPC:Chol:DODAP:PEG-CER14 in a ratio of 20:45:25:10.

[2] = tested on: B16 cells; test: TRP-2 peptide vaccination, B16 pulmonary metastases; format: in vivo, mice; details: SC weekly ×3, then B16 cells IV
Method: TRP-2 and gp100 studies were conducted using the B16/BL6 murine melanoma model. B16 cells (1.0×105) were injected IV in a volume of […]. Typically, animals were vaccinated weekly for 2-3 injections and B16 cells were then administered 1-2 days after the final vaccination. Animals were terminated between days 14-18 post-B16 injection, lungs were removed, and metastases were counted using a stereomicroscope.
TRP-2 peptide was mixed with various adjuvant formulations and was administered SC weekly (×3), followed by an IV administration of B16 cells, which aggressively seed to the lung to form numerous micro metastases. […] CFA is a balanced Th1/Th2 and gave a modest response (mean=46), consistent with the E.G7-OVA studies.

[3] = tested on: E.G7-OVA; test: prophylactic efficacy of OVA / OVA257-264 vaccination, E.G7-OVA model; format: in vivo, C57/BL6 mice; design: anti-tumor activity / antigen specific efficacy / adjuvant activity following prophylactic vaccination: dose or concentration left out as unconfirmed; details: for efficacy of ODN sequences: LNA (encapsulated) forms, FIG. 35; for antigen specific efficacy / adjuvant activity following prophylactic vaccination: free or encapsulated ODN 1 mixed with OVA or OVA257-264, SC; for prophylactic effect on tumor growth: OVA257-264 peptide, LNA containing ODN 30 (PO), SC for 2 weeks, FIG. 31; for anti-tumor activity: antigen alone, once weekly vaccination, 2 injections
Method: Vaccinations. B6 mice were vaccinated subcutaneously (SC) with […] per injection. Dosing schedules were either q7dx2 or q4dx4 and are indicated in the individual figure legends. CFA mixtures were very viscous and had to be given with a larger gauge syringe. For humoral studies, a prime (day 0) and boost (day 14) strategy was used and blood samples were collected at various times by tail nicking.
Efficacy studies. E.G7-OVA or EL-4 thymoma cell lines were used throughout the study. These cells were cultured in vitro according to established methods. For tumor studies, 2.5×106 E.G7-OVA cells were injected subcutaneously in […] of PBS containing 1% FCS. Tumor measurements were made by repeated perpendicular measurements of tumor dimensions and using the formula: […]
Full-length OVA and the immunodominant cytotoxic T lymphocyte (CTL) peptide epitope (OVA257-264) were used to evaluate cell mediated immune responses and the prophylactic and therapeutic efficacy of OVA vaccination against the E.G7-OVA transfected cell line, using LNA both as an adjuvant and as the basis for a cancer vaccine formulation. LNA formulations for this experiment were prepared using DSPC:Chol:DODAP:PEGCer14 at a ration of 25:45:20:10
The anti-tumor activity of OVA and OVA257-264 were examined against the murine thymoma cell line, E.G7-OVA, implanted subcutaneously (SC) in C57/BL6 mice. […] Given the activity observed with the protein or peptide alone, this dose and schedule represents a useful model to evaluate adjuvants designed to boost the immune response against OVA and/or OVA257-264.
To examine LNA formulations as adjuvants, the impact of three variables were evaluated on vaccination and efficacy in the prophylactic E.G7-OVA model: (1) the activity of free vs. encapsulated ODN 1, (2) phosphodiester (PO) vs phosphorothioate (PS) ODN, and (3) full-length OVA protein vs single-epitope peptide OVA257-264 (FIGS. 30A and B). In this set of studies, free and encapsulated ODN 1 was simply mixed with antigen and administered SC near the nape of the neck. ODN and antigen doses in these studies were […], respectively.

[4] = tested on: EG.7 Ova expressing tumor cells; test: prophylactic anti-tumor efficacy, EG7-OVA tumor model, q7d×3; format: in vivo, C57BI/6 mice
Method: Efficacy studies. E.G7-OVA or EL-4 thymoma cell lines were used throughout the study. These cells were cultured in vitro according to established methods. […] Tumor measurements were made by repeated perpendicular measurements of tumor dimensions and using the formula: […]
Anti-tumor efficacy induced by subcutaneous immunization was assessed in C57BI/6 (5 animals per group) in a prophylactic immunization model. Mice were immunized subcutaneously with 3 injections on a q7d×3 dosing regimen on Days 0, 7 and 14 at a dose of 100 μg oligonucleotide and 20 μg of OVA antigen dose. […] Mice were monitored 3 times weekly to assess tumor growth and weight gain. Control mice were injected with one of PBS or HBS and […] of OVA antigen on the same schedule described above. Oligonucleotides were encapsulated in a lipid particle having a lipid composition of one of POPC: CHOL: DODAP:PEGCer14 or DSPC: CHOL: DODAP:PEGCer14 each in a ratio of 25:45:20:10. All comparisons of methylated and unmethylated oligonucleotides were done using like lipid particles. Results from these efficacy experiments are detailed in FIGS. 12-15, 18-21, and 25-28. Day 0 on each of the Figures is the day each animal was challenged with the tumor.

[5] = tested on: leukocytes bearing the activation marker CD69; test: in vitro stimulation of CD69 on leukocytes in mouse whole blood; format: cell-based; details: oligonucleotide encapsulated in POPC:CHOL:DODMA:PEGDMG 20:45:25:10
Method: (§1) CD69 is a cell activation marker, which quantifies the activation of NK cells, B cells and monocytes. Expression of CD69 on NK cells indicates cell activation and production of IFN-γ, which is important to inducing a Th-1 immune response. Free and encapsulated ODN1 and 2 were tested in vitro and in vivo for their ability to induce CD69 expression. A dose of 0.1 mg/ml of ODN2 and 10 mg/ml ODN1 were used in vitro and 10 mg/kg of ODN2 and 20 mg/kg of ODN1 in vivo. Each oligonucleotide was encapsulated in a lipid particle composed of POPC:CHOL:DODMA:PEGDMG in a ratio of 20:45:25:10.
FIG. 1 illustrates the in vitro stimulation of leukocytes bearing the activation marker CD69 from treating mouse whole blood with free oligonucleotides and encapsulated oligonucleoties, specifically ODN1 and 2. When mouse whole blood was treated in vitro with free oligonucleotides there was a dose responsive increase in the amount of CD69 positive B-cells, monocytes and to some extent, NK cells, according to the amount of free oligonucleotide used 15 hours after treatment. […] However, when these same oligonucleotides were encapsulated in a lipid vesicle, the in vitro stimulation of CD69 production on these same cell types was reduced or abolished altogether.

[6] = tested on: dendritic cells; test: expansion of dendritic cells (CD11c, DEC205) in spleen, blood and lymph nodes; format: in vivo, ICR mice; details: lipid encapsulated; single i.v. injection 20 mg/kg; versus PBS control = 100%
Method: ICR mice were immunized with a single intravenous injection of encapsulated oligonucleotides at a dose of 20 mg/kg and the control ICR mouse was injected with PBS. […] Each of these markers are specific to dendritic cells though they may represent different cell sub-populations. In each of FIGS. 4 and 5 the control was plotted as equivalent to 100% and the effect of ODN1m for each backbone configuration was plotted as a percentage of that control.

[7] = tested on: leukocytes bearing the activation marker CD69; test: in vivo stimulation of the CD69 marker after injection; design: species or system ICR mice; details: lipid encapsulated oligonucleotide; 10 mg/kg ODN2, 20 mg/kg ODN1; 16 and 24 hours after injection
Method: as §1
When the same oligonucleotides were tested in vivo, however, surprising results were obtained. FIG. 2 illustrates that in vivo treatment of ICR mice by injection with encapsulated or free oligonucleotides produces results that are contrary to those obtained in vitro.

[8] = tested on: E.G7-OVA; test: therapeutic efficacy of OVA vaccination, established E.G7-OVA tumors; format: in vivo, B6 mice; details: treatment q4d×4 once tumors had reached ~250 mm3
Source text: Currently, the clinical objective is to generate a therapeutic host immune responses that can reduce the progression of established cancers. To evaluate the effect of vaccination on therapeutic efficacy in the E.G7-OVA model, B6 mice were implanted with E.G7-OVA cells and were subsequently treated with OVA, OVA +ODN 1 or OVA +LNA/ODN 1 on a q4d×4 schedule once the tumors had reached ˜250 mm3.

[9] = encapsulated form versus free at the same dose
[10] = TRP-2 peptide alone or mixed with free ODN or other adjuvant
[11] = encapsulated ODN (LNA) mixed with TRP-2 peptide

What does the source list for “ODN14: 5′-AACC GTT GAG GGG CAT-3′, SEQ ID NO: 14, human c-myc (AACCGTTGAGGGGCAT; tested as both phosphodiester and phosphorothioate backbone forms, lipid-encapsulated, further chemistry not given here)”?
increase in IFN-γ [1, 9]: 20 fold; increase in IL-6 [1, 9]: 1000 fold; increase in peak plasma IL-12 [1, 9]: 2.5 fold; stimulation of plasma IL-6, IL-12, IFN-γ and MCP-1 [1]: increased IL-12 induction

With “ODN 3: 5′-TAAGCATACGGGGTGT-3, SEQ ID NO: 3; non-CpG ODN control sequence for ODN 1 (chemistry not given here)” as the molecule, how does the “mean number of metastases” value [2, 10] read?
Its value is 83.

What about the “mean number of metastases” value [2, 11] of the same molecule?
The value was 23.

“ODN1: 5′-TAACGTTGAGGGGCAT-3, SEQ ID NO: 2, human c-myc (tested as both phosphodiester and phosphorothioate backbone forms, lipid-encapsulated, further chemistry not given here)” was tested. Which “efficacy of ODN sequences” value [3] did it give?
The value was “strongest responses”.

And the “antigen specific efficacy / adjuvant activity following prophylactic vaccination” value [3]?
Its value is “encapsulation of ODN 1 resulted in increased antigen specific efficacy”.

What about the “mean number of metastases” value [2, 10] of the same molecule?
The value was 37.

And the “mean number of metastases” value [2, 11]?
Its value is 6.

What about the “reduction in tumor growth” value ([4]; free ODN, 100 μg ODN + 20 μg OVA s.c. q7d×3, tumor challenge Day 21) of the same molecule?
The value was “showed a greater reduction in tumor growth than their methylated counterparts”.

And the “reduction in tumor growth” value ([4]; lipid encapsulated ODN, PO backbone, 100 μg ODN + 20 μg OVA s.c. q7d×3)?
Its value is “lost its efficacy”.

And the “number of animals remaining in the study” value ([4]; lipid encapsulated ODN, FIG. 19B)?
Its value is “essentially identical throughout the study”.

And the “stimulation of CD69 positive B-cells, monocytes and NK cells” value [5]?
Its value is “reduced the stimulation of CD69 on NK cells below the control level”.

What about the “expansion of CD11c positive dendritic cells” value [6] of the same molecule?
The value was “stimulated the expansion of CD11c positive cells in spleen and whole blood”.

And the “expansion of DEC205 positive dendritic cells” value [6]?
The value was “stimulate the expansion of DEC205 positive cells in spleen, whole blood and lymph node”.

What about the “stimulation of the CD69 marker in vivo” value [7] of the same molecule?
The value was “able to stimulate production of CD69 on NK cells”.

And the “late IFN-γ peak” value ([1]; encapsulated PS oligonucleotides, 6 days after treatment)?
Its value is “produced a strong IFN-γ peak; also recorded: produced an IFN-gamma peak”.

What about the “stimulation of plasma IL-6, IL-12, IFN-γ and MCP-1” value [1] of the same molecule?
The value was “increased IL-12 induction”.

With “TRP-2 peptide: immunodominant MHC class I peptide epitope of TRP-2, VYDFFVWL [reference compound]” as the molecule, how does the “mean number of metastases” value [2, 10] read?
Its value is 82.

“ODN 29: 5′-CAACGTTATGGGGAGA-3′, SEQ ID NO: 29; non-antisense version of ODN 1 (chemistry not given here)” was tested. Which “efficacy of ODN sequences” value [3] did it give?
Its value is “strongest responses”.

With “mOVA: acylated OVA257-264 peptide; modified peptide with stearoyl group at the N-terminus [reference compound]” as the molecule, how does the “prophylactic effect on tumor growth” value [3] read?
The value was “no prophylactic effect”.

And the anti-tumor activity [3]?
The anti-tumor activity was “no anti-tumor activity was observed”.

Which results are given for “pOVA: immunodominant CTL peptide epitope OVA257-264 (ESIINFEK; UniProt P01012 257-264, looked up, fragment) [reference compound]”?
prophylactic effect on tumor growth [3]: no prophylactic effect; anti-tumor activity [3]: no anti-tumor activity was observed

B1: OVA: Hen egg albumin (ovalbumin), full-length protein, model tumor-associated antigen (protein, UniProt P01012 1-386, looked up)
chain: MGSIGAASMEFCFDVFKELKVHHANENIFYCPIAIMSALAMVYLGAKDSTRTQINKVVRFDKLPGFGDSIEAQCGTSVNVHSSLRDILNQITKPNDVYSFSLASRLYAEERYPILPEYLQCVKELYRGGLEPINFQTAADQARELINSWVESQTNGIIRNVLQPSSVDSQTAMVLVNAIVFKGLWEKAFKDEDTQAMPFRVTEQESKPVQMMYQIGLFRVASMASEKMKILELPFASGTMSMLVLLPDEVSGLEQLESIINFEKLTEWTSSNVMEERKIKVYLPRMKMEEKYNLTSVLMAMGITDVFSSSANLSGISSAESLKISQAVHAAHAEINEAGREVVGSAEAGVDAASVSEEFRADHPFLFCIKHIATNAVLFFGRCVSP
modifications: full-length
notes: Hen egg albumin (ovalbumin), full-length protein, model tumor-associated antigen
What does the source list for B1?
anti-tumor activity [3]: Anti-tumor activity was observed; antigen specific efficacy / adjuvant activity following prophylactic vaccination [3]: dramatically improved immune responses and efficacy; tumor growth of established tumors [8]: no delay in tumor growth
